# Patent US12630509B2, “Heterocyclic NMDA antagonists” (TAKEDA PHARMACEUTICAL COMPANY LIMITED, priority 2019, dated 2026)
# Test system: not given
# Assay: not given
# Settings: in vivo; cited from earlier work
row,Compound,peripheral symptoms of dementia
1,CC12CC3CC(C)(C1)CC(N)(C3)C2 [memantine],partially ameliorated

# Test system: not given
# Assay: not given
# Settings: in vivo; cited from earlier work
# Remark: another data set of the same source
row,Compound,pain threshold value
1,CC(C(O)c1ccc(O)cc1)N1CCC(Cc2ccccc2)CC1 (centres unmarked) [Ifenprodil],increased

# Test system: not given
# Assay: not given
# Settings: intravenous single administration; cited from earlier work
row,Compound,depression symptoms associated with major depression and bipolar disorder
1,CNC1(c2ccccc2Cl)CCCCC1=O (centres unmarked) [ketamine],rapidly and continuously improves depression symptoms

# Test system: not given
# Assay: not given
# Settings: rodents; cited from earlier work
row,Compound,number of occurrences and depth of cortical spreading depression
1,"C[C@@H]([C@@H](O)c1ccc(O)cc1)N1CCC(O)(c2ccccc2)CC1 [CP-101,606]",suppress the number of occurrences of and the depth of cortical spreading depression
2,Ro25-6981,suppress the number of occurrences of and the depth of cortical spreading depression

# Target: NMDA receptor composed of four subunits including two sets of heterodimers of NR1 and NR2B (GRIN1/GRIN2B) expressed in HEK 293 cells (Homo sapiens, UniProt Q13224)
# Assay: NR2B Ca2+ influx assay
# Assay type: cell-based
# Settings: HEK293, final concentration 10 μM; glutamic acid and glycine induced Ca2+ influx, HEK 293 cells expressing human GRIN1 and GRIN2B; read-out: % inhibited(10 μM)
# Procedure: The HEK 293 cells that express GRIN1 and GRIN2B were purchased from ChanTest (human NMDA (NR1/NR2B) receptor-expressing, stable replicating cell line (HEK 293) catalog no. CT6121).
# Intracellular calcium-ion (Ca^2+) influx caused by glycine and glutamic acid respectively binding to NR1 and NR2B was used as an index of NMDA receptor activation.
# The HEK 293 cells expressing GRIN1 and GRIN2B were cultured in a cell culture flask in an incubator (37° C., in 5% CO2) using a DMEM/F-12 (Cosmo Bio, 10-092-CM) medium supplemented with 10% FBS (fetal bovine serum, AusGene), 100 units/mL penicillin, 100 μg/mL streptomycin, 500 μg/mL neomycin, 100 μg/mL Zeocin (registered trademark of Invitrogen), and 5 μg/mL blasticidin.
# On the day before the assay, the cells were detached from the flask by trypsinization, suspended in a seeding medium (DMEM (Invitrogen, 31053) supplemented with 10% FBS, 100 units/mL penicillin, and 100 μg/mL streptomycin) so as to be 8×10^5 cells/mL, seeded at 25 μL per well in a 384-well plate (Falcon, 356663) so as to be 20,000 cells/well, and cultured overnight using the incubator. On the day of the assay, tetracycline (Wako Pure Chemical, 209-16561) was diluted with the seeding medium at 2 μg/mL, and added at 25 μL/well to the plate into which the cells were seeded, and this was cultured for 2 hours in the incubator. Afterward, the medium was removed and washed with an assay buffer (137 mM NaCl, 4 mM KCl, 1.8 mM CaCl2), 10 mM HEPES (pH 7.2), 10 mM glucose, 0.1% BSA) at 50 μL/well. Next, a loading buffer (buffer wherein 2.5 μM Fluo-4 AM, 2 mM amaranth, and 1 mM tartrazine are added to the assay buffer) was added at 25 μL/well, and this was incubated in the incubator for 30 minutes and for 15 minutes at room temperature. Solutions wherein the Example compounds were diluted with the above-mentioned assay buffer so as to be 30 μM (final concentration 10 μM) were added at 25 μL/well, and these were left standing for 15 minutes at room temperature. Using FDSS7000EX/μCELL (Hamamatsu Photonics), an assay buffer including 30 μM glutamic acid and 30 μM glycine was added at 25 μL/well, and a fluorescence signal of an Excitation wavelength of 480 nm and an Emission wavelength of 540 nm was measured every 3 seconds for 5 minutes. The inhibitory activity was calculated as a relative activity value (inhibitory rate) wherein relative to an integrated value of florescence values of each well, an integrated value of fluorescence values of a well into which an assay buffer without glutamic acid and glycine was defined as 100% inhibition.
# NMDA receptor composed of four subunits including two sets of heterodimers of NR1 and NR2B (GRIN1/GRIN2B) expressed in HEK 293 cells, sequence (Q13224 27-1484, other chains not shown): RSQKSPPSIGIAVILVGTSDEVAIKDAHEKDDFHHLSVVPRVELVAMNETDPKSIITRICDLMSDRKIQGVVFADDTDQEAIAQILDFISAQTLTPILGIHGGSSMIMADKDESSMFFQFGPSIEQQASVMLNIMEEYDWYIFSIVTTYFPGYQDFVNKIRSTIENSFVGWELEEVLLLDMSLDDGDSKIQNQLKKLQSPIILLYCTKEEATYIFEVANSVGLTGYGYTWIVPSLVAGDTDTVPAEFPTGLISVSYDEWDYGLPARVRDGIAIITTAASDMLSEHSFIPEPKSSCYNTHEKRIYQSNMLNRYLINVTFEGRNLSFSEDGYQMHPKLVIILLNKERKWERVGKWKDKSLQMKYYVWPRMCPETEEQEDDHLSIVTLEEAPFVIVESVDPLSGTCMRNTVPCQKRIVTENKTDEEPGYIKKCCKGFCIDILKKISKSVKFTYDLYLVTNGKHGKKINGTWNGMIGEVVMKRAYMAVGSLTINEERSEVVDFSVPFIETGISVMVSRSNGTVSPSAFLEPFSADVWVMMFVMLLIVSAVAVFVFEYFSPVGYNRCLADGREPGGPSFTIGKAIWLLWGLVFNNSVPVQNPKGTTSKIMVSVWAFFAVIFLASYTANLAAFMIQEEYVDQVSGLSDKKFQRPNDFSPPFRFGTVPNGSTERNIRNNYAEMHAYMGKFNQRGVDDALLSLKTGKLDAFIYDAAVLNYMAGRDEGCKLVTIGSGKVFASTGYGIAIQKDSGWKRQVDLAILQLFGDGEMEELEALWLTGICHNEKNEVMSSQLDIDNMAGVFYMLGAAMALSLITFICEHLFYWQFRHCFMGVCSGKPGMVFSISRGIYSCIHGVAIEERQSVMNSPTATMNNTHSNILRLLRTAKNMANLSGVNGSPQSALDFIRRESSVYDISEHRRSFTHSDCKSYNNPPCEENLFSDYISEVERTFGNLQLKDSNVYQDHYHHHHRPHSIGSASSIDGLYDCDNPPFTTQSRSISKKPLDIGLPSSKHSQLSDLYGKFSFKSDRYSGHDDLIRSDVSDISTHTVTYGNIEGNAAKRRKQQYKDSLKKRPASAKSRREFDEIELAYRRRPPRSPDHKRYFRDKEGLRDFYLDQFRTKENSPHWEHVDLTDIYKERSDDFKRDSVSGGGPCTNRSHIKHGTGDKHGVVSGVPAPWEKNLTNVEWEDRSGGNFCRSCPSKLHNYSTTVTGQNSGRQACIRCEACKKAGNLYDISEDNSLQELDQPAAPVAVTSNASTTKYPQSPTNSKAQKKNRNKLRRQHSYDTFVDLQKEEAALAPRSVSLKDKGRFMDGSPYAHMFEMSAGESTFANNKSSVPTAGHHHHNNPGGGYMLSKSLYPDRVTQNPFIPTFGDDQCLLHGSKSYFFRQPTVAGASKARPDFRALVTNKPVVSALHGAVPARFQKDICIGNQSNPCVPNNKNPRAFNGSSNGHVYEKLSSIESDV
row,Compound,inhibition at 10 µM [%]
1,"C[C@H]1COC(=O)N1Cc1cnc(Oc2ccc(Cl)cc2F)nc1 [Example 49, (4S)-3-{[2-(4-chloro-2-fluorophenoxy)pyrimidin-5-yl]methyl}-4-methyl-1,3-oxazolidin-2-one]",97
2,"C[C@H]1CCC(=O)N1Cc1cnc(Oc2ccc(F)cc2F)nc1 [Example 45, (5S)-1-{[2-(2,4-difluorophenoxy)pyrimidine-5-yl]methyl}-5-methylpyrrolidine-2-one]",96
3,"C[C@H]1[C@@H](O)CC(=O)N1Cc1ccc(Oc2ccc(C(F)F)cc2F)nc1 [Example 38, (4S,5S)-1-({6-[4-(difluoromethyl)-2-fluorophenoxy]pyridin-3-yl}methyl)-4-hydroxy-5-methylpyrrolidin-2-one]",95
4,"Cc1ccc(Oc2ccc(CN3C(=O)CC[C@@H]3C)cn2)cc1 [Example 21, (5S)-5-methyl-1-{[6-(4-methylphenoxy)pyridin-3-yl]methyl}pyrrolidin-2-one]",98
5,"Cc1ccc(Oc2ccc(CN3C(=O)OC[C@@H]3C)cc2)cc1 [Example 18, (4S)-4-methy-3-{[4-(4-methylphenoxy)phenyl]methyl}1,3-oxazolidin-2-one]",98
6,"Cc1ccc(Oc2ccc(CN3C(=O)OCC3C(F)F)cn2)c(F)c1 (centres unmarked) [Example 40, 4-(difluoromethyl)-3-{[6-(2-fluoro-4-methylphenoxy)pyridin-3-yl]methyl}-1,3-oxazolidin-2-one]",95
7,"Cc1ccc(Oc2ncc(CN3C(=O)C[C@H](O)[C@@H]3C)cn2)cc1 [Example 15, (4S,5S)-4-hydroxy-5-methyl-1-{[2-(4-methylphenoxy)pyrimidin-5-yl]methyl}pyrrolidin-2-one]",90
8,"Cc1ccc(Oc2ncc(CN3C(=O)CC[C@@H]3C)cn2)cc1 [Example 22, (5S)-5-methyl-1-{[2-(4-methylphenoxy)pyrimidin-5-yl]methyl}pyrrolidin-2-one]",95
9,"Cc1ccc(Oc2ccc(CN3C(=O)OC[C@@H]3C)cn2)cc1 [Example 20, (4S)-4-methyl-3-{[6-(4-methylphenoxy)pyridin-3-yl]methyl}-1,3-oxazolidin-2-one]",97
10,"Cc1ccc(Oc2ccc(CN3C(=O)C[C@H](O)[C@H]3C)cc2)cc1 [Example 11, (4S,5R)-4-hydroxy-5-methyl-1-{[4-(4-methylphenoxy)pheny]methyl}pyrrolidin-2-one]",91
11,"C[C@H]1[C@@H](O)C(F)(F)C(=O)N1Cc1ccc(Oc2c(F)cc(F)cc2F)nc1 [Example 34, (4R,5S)-3,3-difluoro-4-hydroxy-5-methyl-1-{[6-(2,4,6-trifluorophenoxy)pyridin-3-yl]methyl}pyrrolidin-2-one]",97
12,"C[C@H]1[C@@H](O)CC(=O)N1Cc1ccc(Oc2ccc(F)cc2F)nc1 [Example 37, (4S,5S)-1{[-6-(2,4-difluorophenoxy)pyridin-3-yl]methyl}-4-hydroxy-5-methylpyrrolidin-2-one]",97
13,"C[C@H]1CNC(=O)N1Cc1ccc(Oc2ccc(F)cc2F)nc1 [Example 35, (5S)-1-{[6-(2,4-difluorophenoxy)pyridin-3-yl]methyl}5-methylimidazolidin-2-one]",96
14,"C[C@H]1CCC(=O)N1Cc1ccc(Oc2ccc(C(F)F)cc2F)nc1 [Example 47, (5S)-1-({6-[4-(difluoromethy)-2-fluorophenoxy]pyridin-3-yl}methyl)-5-methylpyrrolidin-2-one]",99
15,"C[C@H]1COC(=O)N1Cc1ccc(Oc2ccc(C(F)F)cc2F)nc1 [Example 50, (4S)-3-({6-[4-(difluoromethyl)-2-fluorophenoxy]pyridin-3-yl}methyl)-4-methyl-1,3-oxazolidin-2-one]",98
16,"Cc1ccc(Oc2ccc(CN3C(=O)CCC3C(F)(F)F)cn2)cc1 (centres unmarked) [Example 29, 1-{[6-(4-methylphenoxy)pyridin-3-yl]methyl}-5-(trifluoromethyl)pyrrolidin-2-one]",93
17,"C[C@H]1CCC(=O)N1Cc1cnc(Oc2ccc(Cl)cc2F)nc1 [Example 46, (5S)-1-{[2-(4-chloro-2-fluorophenoxy)pyrimidin-5-yl]methyl}-5-methylpyrrolidin-2-one]",97

# Test system: not given
# Assay: not given
# Settings: continuous intravenous administration; cited from earlier work
row,Compound,treatment-resistant depression symptoms
1,"C[C@@H]([C@@H](O)c1ccc(O)cc1)N1CCC(O)(c2ccccc2)CC1 [CP-101,606]",significantly improved

# Test system: NMDA receptor containing the NR2B subunit
# Assay: [3H]MK-801 binding test in vivo
# Set-up: species or system Sprague Dawley rats
# Settings: [3H]MK-801 binding inhibitory rate in rat hippocampus, vehicle control 100%, excess MK-801 maleate 0%
# Procedure: In order to confirm that compounds of the present disclosure exert functional antagonistic action on an NMDA receptor containing the NR2B subunit in vivo, a binding test was performed using tritium-labeled form of MK-801 ((5R,10S)-5-methyl-10,11-dihydro-5H-5,10-epiminodibenzo[a,d][7]annulene) ([3H]MK-801), which is a compound capable of binding to the opening site of the NMDA receptor.
# The example compound (3 mg/kg/2 mL, 0.5% MC water) or vehicle (0.5% MC water 2 ml) was orally administered (p.o.) to Sprague Dawley rats (body weight 180-260 g). After a certain time (around after time-to maximum blood concentration), [3H]MK-801 (20 μCi/kg/mL, Muromachi Kikai) was intravenously administered. After 10 min, the rats were euthanized by decapitation, and subjected to craniotomy, and the hippocampus was collected. The collected hippocampus was homogenized in 30 volumes (30 mL per 1 g tissue) ice-cooled 20 mM HEPES (pH7.5, Hampton Research) using a homogenizer (T10 basic Ultra-Turrax) for 10 sec. […] The filter was washed four times with ice-cooled saline (5 mL, Otsuka Pharmaceutical), put into a scintillation vial, and then 10 mL of liquid scintillator A (FUJIFILM Wako Pure Chemical Corporation) was added thereto, and the residual radioactivity was counted using liquid scintillation counter (ALOKA LSC-6100).
# Separately, the residual radioactivity in 100 μL of the homogenate before the filtration was counted in the same way. The value of [the residual radioactivity in the filter/the residual radioactivity in the 100 μL of the homogenate] was calculated as a [3H]MK-801 binding rate to the NMDA receptor expressing in each individual hippocampus tissue. […] The difference between the percentage of [^3H]MK-801 binding rate in the group orally administered with the example compound and that in the vehicle control group (100%) was analyzed as [^3H]MK-801 binding inhibitory rate by the example compound.
row,Compound,"Inhibitory Rate (3 mg/kg, p.o.) [%]"
1,"C[C@H]1COC(=O)N1Cc1cnc(Oc2ccc(Cl)cc2F)nc1 [Example 49, (4S)-3-{[2-(4-chloro-2-fluorophenoxy)pyrimidin-5-yl]methyl}-4-methyl-1,3-oxazolidin-2-one]",19
2,"C[C@H]1CCC(=O)N1Cc1cnc(Oc2ccc(F)cc2F)nc1 [Example 45, (5S)-1-{[2-(2,4-difluorophenoxy)pyrimidine-5-yl]methyl}-5-methylpyrrolidine-2-one]",13
3,"C[C@H]1[C@@H](O)CC(=O)N1Cc1ccc(Oc2ccc(C(F)F)cc2F)nc1 [Example 38, (4S,5S)-1-({6-[4-(difluoromethyl)-2-fluorophenoxy]pyridin-3-yl}methyl)-4-hydroxy-5-methylpyrrolidin-2-one]",22
